Test results from the NIST ThermoML archive (doi:10.1016/j.fluid.2014.03.001).
Numbers after ± are expanded uncertainties.

Conditions: Crystal 1; DTA

Compared with `CCCCCCCC/C=C\CCCCCCCC(=O)OCC` [ethyl (Z)-9-octadeceneoate], `CCCCCCCCCCCCCC(=O)OCC` [ethyl tetradecanoate] is higher in Normal melting temperature: -18.8 ± 0.7 °C for the first, 14.2 ± 0.5 °C for the second.

With `CCCCCCCCCCCCCCCCCC(=O)OCC` [ethyl octadecanoate] the Normal melting temperature was 34.7 ± 0.7 °C.
